Entries after “also recorded” stand apart in the source; their conditions may differ. Like-named read-outs stand apart in the source and are kept apart here.
What was measured:
[1] = system: intraocular pressure; conditions: cited from earlier work
[2] = system: aqueous humor formation and intraocular pressure; test: Studies of ability to reduce aqueous humor formation and intraocular pressure in rabbits and cats; conditions: rabbit, in vivo
Text: The dopamine antagonists of the present invention have been studied with respect to their ability to reduce aqueous humor formation and intraocular pressure in rabbits and cats. The studies indicate that the compounds are effective in reducing aqueous humor formation and intraocular pressure subsequent to topical and intracameral application.

[3] = system: intraocular pressure (IOP); test: Intraocular pressure (IOP) recovery model in rabbits after hypertonic saline (20% NaCl) infusion; assay type: in vivo, Albino rabbits; conditions: for potency in lowering intraocular pressure compared with timolol: FIGS. 1-5; for potency in lowering intraocular pressure compared with pilocarpine and timolol: in vivo
Experimental: Albino rabbits of either sex, weighing 2.25-2.5 kg were used for this intraocular pressure (IOP) recovery model experiment. Hypertonic saline (20% NaCl) was infused into the ear vein at a rate of 1 ml/min. for 10 minutes. The IOP was determined with Mackay-Marg electronic applanation tonometer (Berkeley Bio-Engineering, San Leandro, Calif.) at 0, 5, 10, 15, 20, 40, 60, 80, and every 30 minutes thereafter. The IOP decreased abruptly right after the infusion of hypertonic saline and recovered to normal in approximately 80-110 minutes. Identical experiments were repeated with the same group of animals one week later, wherein addition to the hypertonic saline infusion, haloperidol was instilled into the eyes in the form of 50 μl of an aqueous solution of 0.125 wt % haloperidol.
The procedure performed in Example 1 was carried out in the same manner, except that an aqueous solution of 0.25 wt % haloperidol was employed.
The procedure performed in Example 1 was carried out in the same manner, except that an aqueous solution of 0.25 wt % moperone was used.
The procedure performed in Example 1 was carried out in the same manner, except that an aqueous solution of 0.25 wt % trifluperidol was used.
The procedure performed in Example 1 was carried out in the same manner, except that an aqueous solution of 0.25 wt % L-timolol was used.
The procedure performed in Example 1 was carried out in the same manner, except that an aqueous solution of 0.25 wt % clofluperol was used.
The procedure performed in Example 1 was carried out in the same manner, except that an aqueous solution of 0.25 wt % floropipamide was used.
The procedure performed in Example 1 was carried out in the same manner, except that an aqueous solution of 0.25 wt % lenperone was used.
The procedure performed in Example 1 was carried out in the same manner with the following exceptions: (a) an Alcon electronic applanation tonometer (Alcon Laboratories, Inc., Ft. Worth, Tex.) was used to determine IOP; and (b) an aqueous solution of 0.25 wt % trifluoperazine was used.
The procedure performed in Example 10 was carried out in the same manner, except that an aqueous solution of 0.25 wt % chlorpromazine was used.
The procedure performed in Example 10 was carried out in the same manner, except that an aqueous solution of 0.5 wt % domperidone was used.

[4] = Systemic absorption after topical instillation to the eye; assay type: in vivo; conditions: assuming not more than 10% of topically instilled drug absorbed systemically
[5] = system: aqueous humor (AH) dynamics; test: Cat eye model, aqueous humor (AH) dynamics (rates of AH formation and outflow, blue dextran); assay type: in vivo, cats; conditions: 50 μl of 0.5% eye drops
Experimental: The cat eye model was used for the study of haloperidol actions in aqueous humor (AH) dynamics. Briefly, cats of either sex weighing 2.5-4.0 kg were anesthetized with 30 mg/kg of pentobarbital sodium. Systemic blood pressure was monitored through cannulation at the femoral artery and additional pentobarbital was injected via femoral vein. Three needles were put into each eye. The first one was placed in the anterior chamber for the monitoring of IOP. The second one was placed at the posterior chamber for the infusion of AH-like solution containing 0.01% of blue dextran (NaCl, 137; KCl, 4.7; CaCl2, 1.53; MgCl2, 0.67; Na2 HPO4, 0.11 and dextrose, 5.56 mM). The rate of the infusion was adjusted to 38 μl/min. The third one was placed in the anterior chamber to serve as an overflow outlet. The overflown solution passed through a microspectrophotometric cell (ISCO, UA-5, Lincoln, Nebr.) for the detection of changes of blue dextran concentration and through a drop counter (ISCO, Model 328) for the recording of overflow rate.
Haloperidol (50 μl of 0.5% eye drops) was instilled to the eyes when the blue dextran tracings were stabilized (in about 2 hrs. after the initiation of the infusion). The rates of AH formation (rf) and outflow (ro) were calculated as follows: […]

[6] = background; cited from earlier work
[7] = background; cited from earlier work; remark: listed apart in the source
[8] = Oryctolagus cuniculus, topical, read-out: Difference in Max Reduction of IOP
[9] = rabbit, 0.125% drug, Mackay-Marg tonometer, 50 μl eye instillation
[10] = rabbit, 0.25 wt % aqueous solution
[11] = Oryctolagus cuniculus, topical, rabbit, 0.25% drug, Mackay-Marg tonometer, 100% control IOP 20.2 ± 1.3 mm Hg, 20% saline alone 65 ± 1, read-out: Difference in Max Reduction of IOP
[12] = rabbit, 0.25% drug, Mackay-Marg tonometer, 50 μl eye instillation
[13] = rabbit, 0.25 wt % aqueous solution, Mackay-Marg tonometer
[14] = rabbit, 0.25% drug, Alcon electronic applanation tonometer
[15] = rabbit, 0.25 wt % aqueous solution, Alcon tonometer

CC[C@@H]1C(=O)OC[C@@H]1Cc1cncn1C [pilocarpine]
mechanism: effect on aqueous humor outflow and formation ([1]; comparison with haloperidol): increases aqueous humor outflow without affecting aqueous humor formation

O=C(CCCN1CCC(O)(c2ccc(Cl)c(C(F)(F)F)c2)CC1)c1ccc(F)cc1 [Clofluperol]
reduction of aqueous humor formation and intraocular pressure [2]: reduce significantly
potency in lowering intraocular pressure compared with timolol [3]: at least equipotent to timolol
response vs control in vivo at 0.125 % [3, 8]: 59 ± 2%
Time Delay for IOP Recovery Relative to Control [3, 9]: 60 min
IOP recovery compared with L-timolol [3, 10]: generally equivalent to that of L-timolol

NC(=O)C1(N2CCCCC2)CCN(CCCC(=O)c2ccc(F)cc2)CC1 [Floropipamide]
reduction of aqueous humor formation and intraocular pressure [2]: reduce significantly
potency in lowering intraocular pressure compared with timolol [3]: at least equipotent to timolol
response vs control in vivo at 0.25 % [3, 11]: 60 ± 3%
Time Delay for IOP Recovery Relative to Control [3, 12]: 60 min
IOP recovery compared with L-timolol [3, 10]: generally equivalent to that of L-timolol

Cc1ccc(C2(O)CCN(CCCC(=O)c3ccc(F)cc3)CC2)cc1 [Moperone]
reduction of aqueous humor formation and intraocular pressure [2]: reduce significantly
potency in lowering intraocular pressure compared with timolol [3]: more potency than timolol
response vs control in vivo at 0.25 % [3, 11]: 55 ± 1%
Time Delay for IOP Recovery Relative to Control [3, 12]: 180 min
shift of the IOP recovery curve relative to the control curve [3, 13]: indicates the ocular hypotensive action
potency in lowering intraocular pressure compared with pilocarpine and timolol ([3]; rabbit): more potent than pilocarpine and timolol

O=C(CCCN1CCC(C(=O)c2ccc(F)cc2)CC1)c1ccc(F)cc1 [Lenperone]
reduction of aqueous humor formation and intraocular pressure [2]: reduce significantly
potency in lowering intraocular pressure compared with timolol [3]: at least equipotent to timolol
response vs control in vivo at 0.25 % [3, 11]: 61 ± 2%
Time Delay for IOP Recovery Relative to Control [3, 12]: 60 min
IOP recovery compared with L-timolol [3, 10]: generally equivalent to that of L-timolol

O=c1[nH]c2ccccc2n1CCCN1CCC(n2c(=O)[nH]c3cc(Cl)ccc32)CC1 [Domperidone]
response vs control in vivo at 0.5 % [3, 8]: 56 ± 4%
Time Delay for IOP Recovery Relative to Control ([3]; rabbit, 0.5% drug, Alcon electronic applanation tonometer): 210 min
shift of the IOP recovery curve relative to the control curve ([3]; rabbit, 0.5 wt % aqueous solution, Alcon tonometer): indicates the ocular hypotensive action

CN(C)CCCN1c2ccccc2Sc2ccc(Cl)cc21 [Chlorpromazine]
response vs control in vivo at 0.25 % [3, 8]: 52 ± 3%
Time Delay for IOP Recovery Relative to Control [3, 14]: 120 min
shift of the IOP recovery curve relative to the control curve [3, 15]: indicates the ocular hypotensive action

CC(C)(C)NC[C@@H](O)COc1nsnc1N1CCOCC1 [D-timolol]
intraocular pressure reducing response compared with S isomer ([1]; U.S. Pat. No. 4,521,414): substantially equivalent to that of the S isomer

O=C(CCCN1CCC(O)(c2ccc(Cl)cc2)CC1)c1ccc(F)cc1 [Haloperidol, 4-[4-(p-chlorophenyl)-4-hydroxypiperidino]-4'-fluorobutyrophenone]
reduction of aqueous humor formation and intraocular pressure [2]: reduce significantly
anti-psychotic dosage level potentially absorbed as a result of glaucoma therapy [4]: 0.2% to 0.65
potency in lowering intraocular pressure compared with timolol [3]: more potency than timolol
response vs control in vivo at 0.125 % [3, 8]: 45 ± 2%
response vs control in vivo at 0.25 % [3, 8]: 46 ± 2%
Time Delay for IOP Recovery Relative to Control [3, 9]: 180 min
shift of the IOP recovery curve relative to the control curve ([3]; rabbit, 0.125 wt % aqueous solution): indicates the ocular hypotensive action
Time Delay for IOP Recovery Relative to Control [3, 12]: 270 min
shift of the IOP recovery curve relative to the control curve [3, 13]: indicates the ocular hypotensive action
potency in lowering intraocular pressure compared with pilocarpine and timolol ([3]; rabbit): more potent than pilocarpine and timolol
AH formation ([5]; following the initial outflow increase): decrease in aqueous humor formation; also recorded: decrease in AH formation
AH outflow ([5]; initial effect): initial increase in aqueous humor outflow; also recorded: initially caused an increase in AH outflow

CN1CCN(CCCN2c3ccccc3Sc3ccc(C(F)(F)F)cc32)CC1 [Trifluoperazine]
response vs control in vivo at 0.25 % ([3]; Oryctolagus cuniculus, topical, rabbit, 0.25% drug, Alcon tonometer, 100% control IOP 20.2 ± 1.3 mm Hg, 20% saline alone 65 ± 1, read-out: Difference in Max Reduction of IOP): 49 ± 4%
Time Delay for IOP Recovery Relative to Control [3, 14]: 150 min
shift of the IOP recovery curve relative to the control curve [3, 15]: indicates the ocular hypotensive action

CC(C)(C)NC[C@H](O)COc1nsnc1N1CCOCC1 [Timolol, 1-tert-butyl-amino-3-[(4-morpholino-1,2,5-thiadiazol-3-yl)oxy]-2-propanol]
systemic absorption after topical administration to the eye [6]: a small portion is absorbed into the systemic circulation
local anesthetic action [7]: lack of local anesthetic action
tolerance [7]: minimal tolerance
response vs control in vivo at 0.25 % [3, 11]: 62 ± 4%
Time Delay for IOP Recovery Relative to Control [3, 12]: 60 min
